Results reported in publication PMC12682127, “Structural basis for inhibition of Mycobacterium tuberculosis α-methylacyl-CoA racemase by 2-arylthiopropanoyl-CoA inhibitor analogs” (The Journal of Biological Chemistry, 2025).
Where two headings read alike, the source gives them in different places.

Columns and labels:
[1] = molecular target: T1, Mycobacterium tuberculosis α-methylacyl-CoA racemase (MCR) (Mycobacterium tuberculosis, UniProt O06543); design: made in house; method as in PMID 40447188; conditions: cited from earlier work
T1 sequence (O06543 whole entry): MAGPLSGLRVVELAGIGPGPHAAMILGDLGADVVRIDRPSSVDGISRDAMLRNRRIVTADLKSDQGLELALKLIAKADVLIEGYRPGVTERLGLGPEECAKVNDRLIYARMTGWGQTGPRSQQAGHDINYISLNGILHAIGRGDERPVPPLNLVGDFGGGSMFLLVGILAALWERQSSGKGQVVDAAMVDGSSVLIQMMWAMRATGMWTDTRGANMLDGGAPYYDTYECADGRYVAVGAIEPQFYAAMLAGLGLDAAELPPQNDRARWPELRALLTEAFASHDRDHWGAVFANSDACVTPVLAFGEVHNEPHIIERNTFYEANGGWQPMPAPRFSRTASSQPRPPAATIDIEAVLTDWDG

[2] = molecular target: T1, Mycobacterium tuberculosis α-methylacyl-CoA racemase (MCR); test: MCR inhibition, colorimetric assay, dose-response curves; assay type: biochemical; design: made in house
[3] = molecular target: T1, Mycobacterium tuberculosis α-methylacyl-CoA racemase (MCR); test: Jump-dilution experiment for reversibility of MCR inhibition; assay type: biochemical; design: made in house; conditions: inhibitor at 24 × or 0.24 × IC50, 12 min
Description: Inhibition assays were conducted as previously described ([17]) in 50 mM NaH2PO4-NaOH, 100 mM NaCl, 1 mM EDTA (pH 7.4), and 3% (v/v) dimethylsulfoxide. Product formation was monitored at 354 nm. […] Enzyme and inhibitor were preincubated for 10 min before adding substrate to initiate the assay. Rates were determined using ICEKAT ([50], [51]), and dose-response curves ([36], [37]) were fitted using SigmaPlot 15.0 with a 4-parameter logistic model. Data are reported as pIC50 ± SEM (n = 3).

[4] = molecular target: T1, Mycobacterium tuberculosis α-methylacyl-CoA racemase (MCR); test: Inhibition mode determination / Ki (kinetic analysis, colorimetric assay); assay type: biochemical; design: made in house
Description: Enzyme and inhibitor solutions were pre-incubated for 10 min before adding these mixtures to the substrate to initiate the assay. Rates were determined using ICEKAT ([50], [51]) and analyzed with SigmaPlot 15.0 using Simple EK and enzyme kinetics macros ([53]). The best-fitting inhibition model was selected based on graphical analysis and statistical ranking of models. The Ki value was determined as the mean ± SEM from three independent repeats.

[5] = molecular target: T1, Mycobacterium tuberculosis α-methylacyl-CoA racemase (MCR); conditions: mean ± SEM, n = 3; cited from earlier work
[6] = Log10 IC50, repeat 1, 4-parameter logistic fit coefficient
[7] = Log10 IC50, repeat 2, 4-parameter logistic fit coefficient
[8] = Log10 IC50, repeat 3, 4-parameter logistic fit coefficient
[9] = pIC50, mean ± SEM, n = 3, MCR 3.12 nM, substrate 96 μM, 10 min preincubation, pH 7.4
[10] = repeat 1, 4-parameter logistic fit coefficient
[11] = repeat 2, 4-parameter logistic fit coefficient
[12] = repeat 3, 4-parameter logistic fit coefficient

Row | SMILES | pIC50 [1] | IC50 [2, 6] | IC50 [2, 7] | IC50 [2, 8] | IC50 [2, 9] | Hillslope [2, 10] | Hillslope [2, 11] | Hillslope [2, 12] | Potency relative to ibuprofenoyl-CoA, from pIC50 [2] | Reversibility of inhibition [3] | Ki ([4]; mean ± SEM, n = 3, competitive model) | Ki ([4]; repeat 1) | Ki ([4]; repeat 2) | Ki ([4]; repeat 3) | Mode of inhibition ([4]; Lineweaver-Burk plot / kinetic analysis) | Ki [5]
1 | CC(C(=O)SCCNC(=O)CCNC(=O)C(O)C(C)(C)COP(=O)(O)OP(=O)(O)OCC1OC(n2cnc3c(N)ncnc32)C(O)C1OP(=O)(O)O)c1cccc(Oc2ccccc2)c1 (racemic) [Compound 1, (±)-Fenoprofenoyl-CoA] | 5.43 ± 0.07 |  |  |  |  |  |  |  |  |  |  |  |  |  |  | 
2 | CC(Sc1cccc(OCc2ccccc2)c1)C(=O)SCCNC(=O)CCNC(=O)C(O)C(C)(C)COP(=O)(O)OP(=O)(O)OCC1OC(n2cnc3c(N)ncnc32)C(O)C1OP(=O)(O)O (racemic) [Compound 2, (±)-2-(3-Benzyloxyphenylthio)propanoyl-CoA] |  | 1.63 µM | 0.619 µM | 0.487 µM | 0.794 µM | -0.7954 | -0.7479 | -0.8395 |  |  |  |  |  |  |  | 
3 | COc1cccc(COc2cccc(SC(C)C(=O)SCCNC(=O)CCNC(=O)C(O)C(C)(C)COP(=O)(O)OP(=O)(O)OCC3OC(n4cnc5c(N)ncnc54)C(O)C3OP(=O)(O)O)c2)c1 (racemic) [Compound 3, (±)-2-(3-(3-Methoxybenzyloxy)phenylthio)propanoyl-CoA] |  | 0.401 µM | 0.425 µM | 0.228 µM | 0.339 µM | -0.6534 | -0.5594 | -0.7275 |  |  |  |  |  |  |  | 
4 | CC(Sc1cccc(OCCc2ccccc2)c1)C(=O)SCCNC(=O)CCNC(=O)C(O)C(C)(C)COP(=O)(O)OP(=O)(O)OCC1OC(n2cnc3c(N)ncnc32)C(O)C1OP(=O)(O)O (racemic) [Compound 4, (±)-2-(3-(2-Phenylethoxy)phenylthio)propanoyl-CoA] |  | 0.791 µM | 0.891 µM | 0.839 µM | 0.832 µM | -0.6564 | -0.8291 | -0.8501 |  |  |  |  |  |  |  | 
5 | COc1cccc(CCOc2cccc(SC(C)C(=O)SCCNC(=O)CCNC(=O)C(O)C(C)(C)COP(=O)(O)OP(=O)(O)OCC3OC(n4cnc5c(N)ncnc54)C(O)C3OP(=O)(O)O)c2)c1 (racemic) [Compound 5, (±)-2-(3-(2-(3-Methoxyphenyl)ethoxy)phenylthio)propanoyl-CoA] |  | 1.47 µM | 1.26 µM | 1.49 µM | 1.41 µM | -1.0666 | -1.0398 | -0.8398 |  |  |  |  |  |  |  | 
6 | CC(Sc1cccc(OCCc2cccc(C(F)(F)F)c2)c1)C(=O)SCCNC(=O)CCNC(=O)C(O)C(C)(C)COP(=O)(O)OP(=O)(O)OCC1OC(n2cnc3c(N)ncnc32)C(O)C1OP(=O)(O)O (racemic) [Compound 6, (±)-2-(3-(2-(3-Trifluoromethylphenyl)ethoxy)phenylthio)propanoyl-CoA] |  | 0.134 µM | 0.109 µM | 0.316 µM | 0.166 µM | -0.6535 | -0.6960 | -1.0454 | at least 13.5 times | reversible inhibition | 0.238 ± 0.039 µM | 0.19 µM | 0.315 µM | 0.21 µM | competitive inhibition | 
7 | CC(C)COc1cccc(SC(C)C(=O)SCCNC(=O)CCNC(=O)C(O)C(C)(C)COP(=O)(O)OP(=O)(O)OCC2OC(n3cnc4c(N)ncnc43)C(O)C2OP(=O)(O)O)c1 (racemic) [Compound 7, (±)-2-(3-(2-Methylpropoxy)phenylthio)propanoyl-CoA] |  | 4.03 µM | 3.32 µM | 4.76 µM | 3.98 µM | -0.7207 | -0.6683 | -0.7565 |  |  |  |  |  |  |  | 
8 | CC(Sc1ccc(OCc2ccccc2)cc1)C(=O)SCCNC(=O)CCNC(=O)C(O)C(C)(C)COP(=O)(O)OP(=O)(O)OCC1OC(n2cnc3c(N)ncnc32)C(O)C1OP(=O)(O)O (racemic) [Compound 8, (±)-2-(4-Benzyloxyphenylthio)propanoyl-CoA] |  | 2.62 µM | 2.61 µM | 2.8 µM | 2.69 µM | -0.8760 | -0.9668 | -0.9845 |  |  |  |  |  |  |  | 
9 | COc1cccc(COc2ccc(SC(C)C(=O)SCCNC(=O)CCNC(=O)C(O)C(C)(C)COP(=O)(O)OP(=O)(O)OCC3OC(n4cnc5c(N)ncnc54)C(O)C3OP(=O)(O)O)cc2)c1 (racemic) [Compound 9, (±)-2-(4-(3-Methoxybenzyloxy)phenylthio)propanoyl-CoA] |  | 2.67 µM | 2.25 µM | 2.84 µM | 2.57 µM | -1.2477 | -0.8652 | -1.1180 |  |  |  |  |  |  |  | 
10 | CC(Sc1ccc(OCCc2ccccc2)cc1)C(=O)SCCNC(=O)CCNC(=O)C(O)C(C)(C)COP(=O)(O)OP(=O)(O)OCC1OC(n2cnc3c(N)ncnc32)C(O)C1OP(=O)(O)O (racemic) [Compound 10, (±)-2-(4-(2-Phenylethoxy)phenylthio)propanoyl-CoA] |  | 2.14 µM | 3.02 µM | 2.49 µM | 2.51 µM | -0.9669 | -1.3506 | -1.1651 |  |  |  |  |  |  |  | 
11 | COc1cccc(CCOc2ccc(SC(C)C(=O)SCCNC(=O)CCNC(=O)C(O)C(C)(C)COP(=O)(O)OP(=O)(O)OCC3OC(n4cnc5c(N)ncnc54)C(O)C3OP(=O)(O)O)cc2)c1 (racemic) [Compound 11, (±)-2-(4-(2-(3-Methoxyphenyl)ethoxy)phenylthio)propanoyl-CoA] |  | 0.669 µM | 1.31 µM | 0.598 µM | 0.813 µM | -0.8553 | -1.1060 | -0.6966 |  |  |  |  |  |  |  | 
12 | CC(Sc1ccc(OCCc2cccc(C(F)(F)F)c2)cc1)C(=O)SCCNC(=O)CCNC(=O)C(O)C(C)(C)COP(=O)(O)OP(=O)(O)OCC1OC(n2cnc3c(N)ncnc32)C(O)C1OP(=O)(O)O (racemic) [Compound 12, (±)-2-(4-(2-(3-Trifluoromethylphenethoxy)phenylthio)propanoyl-CoA] |  | 0.828 µM | 0.706 µM | 1.04 µM | 0.851 µM | -1.1570 | -1.0035 | -1.3522 |  |  |  |  |  |  |  | 
13 | CC(C)COc1ccc(SC(C)C(=O)SCCNC(=O)CCNC(=O)C(O)C(C)(C)COP(=O)(O)OP(=O)(O)OCC2OC(n3cnc4c(N)ncnc43)C(O)C2OP(=O)(O)O)cc1 (racemic) [Compound 13, (±)-2-(4-(2-Methylpropoxy)phenylthio)propanoyl-CoA] |  | 2.07 µM | 1.93 µM | 1.64 µM | 1.86 µM | -0.7177 | -0.8209 | -0.7335 |  |  |  |  |  |  |  | 
14 | CCCCCOc1ccc(SC(C)C(=O)SCCNC(=O)CCNC(=O)C(O)C(C)(C)COP(=O)(O)OP(=O)(O)OCC2OC(n3cnc4c(N)ncnc43)C(O)C2OP(=O)(O)O)cc1 (racemic) [Compound 14, (±)-2-((4-(pentyloxy)phenyl)thio)propanoyl-CoA] |  | 0.913 µM | 0.69 µM | 0.846 µM | 0.813 µM | -0.6352 | -0.8783 | -0.7880 |  |  |  |  |  |  |  | 
15 | CC(C)Cc1ccc(C(C)C(=O)SCCNC(=O)CCNC(=O)C(O)C(C)(C)COP(=O)(O)OP(=O)(O)OCC2OC(n3cnc4c(N)ncnc43)C(O)C2OP(=O)(O)O)cc1 (centres unmarked) [ibuprofenoyl-CoA] | 5.65 ± 0.05 |  |  |  |  |  |  |  |  |  |  |  |  |  |  | 3.04 ± 0.34 µM
